Assay results reported in PubChem BioAssay (NCI).
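Exposure lasted 48 hours, with cells grown in 96-well plates and compounds tested at five concentrations. GI50: concentration for 50% inhibition of growth. The concentration for full growth arrest is given as TGI.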

How the values were obtained:
Experiment in all cases: NCI tumour cell line growth inhibition, 48 h
786-0 renal = system: 786-0 renal
A498 renal = system: A498 renal
A549 NSCLC = system: A549 NSCLC
ACHN renal = system: ACHN renal
BT-549 breast = system: BT-549 breast
CAKI-1 renal = system: CAKI-1 renal
CCRF-CEM leukemia = system: CCRF-CEM leukemia
COLO 205 colon = system: COLO 205 colon
DU-145 prostate = system: DU-145 prostate
EKVX NSCLC = system: EKVX NSCLC
HCC-2998 colon = system: HCC-2998 colon
HCT-116 colon = system: HCT-116 colon
HCT-15 colon = system: HCT-15 colon
HL-60(TB) leukemia = system: HL-60(TB) leukemia
HOP-62 NSCLC = system: HOP-62 NSCLC
HOP-92 NSCLC = system: HOP-92 NSCLC
HS 578T breast = system: HS 578T breast
HT29 colon = system: HT29 colon
IGROV1 ovarian = system: IGROV1 ovarian
K-562 leukemia = system: K-562 leukemia
KM12 colon = system: KM12 colon
LOX IMVI melanoma = system: LOX IMVI melanoma
M14 melanoma = system: M14 melanoma
MALME-3M melanoma = system: MALME-3M melanoma
MCF7 breast = system: MCF7 breast
MDA-MB-231 breast = system: MDA-MB-231 breast
MDA-MB-435 = system: MDA-MB-435
MOLT-4 leukemia = system: MOLT-4 leukemia
NCI-H226 lung = system: NCI-H226 lung
NCI-H23 lung = system: NCI-H23 lung
NCI-H460 lung = system: NCI-H460 lung
NCI-H522 lung = system: NCI-H522 lung
NCI/ADR-RES ovarian = system: NCI/ADR-RES ovarian
OVCAR-3 ovarian = system: OVCAR-3 ovarian
OVCAR-4 ovarian = system: OVCAR-4 ovarian
OVCAR-5 ovarian = system: OVCAR-5 ovarian
OVCAR-8 ovarian = system: OVCAR-8 ovarian
PC-3 prostate = system: PC-3 prostate
RPMI-8226 leukemia = system: RPMI-8226 leukemia
RXF 393 renal = system: RXF 393 renal
SF-268 CNS = system: SF-268 CNS
SF-295 CNS = system: SF-295 CNS
SF-539 CNS = system: SF-539 CNS
SK-MEL-2 melanoma = system: SK-MEL-2 melanoma
SK-MEL-28 melanoma = system: SK-MEL-28 melanoma
SK-MEL-5 melanoma = system: SK-MEL-5 melanoma
SK-OV-3 ovarian = system: SK-OV-3 ovarian
SN12C renal = system: SN12C renal
SNB-19 CNS = system: SNB-19 CNS
SNB-75 CNS = system: SNB-75 CNS
SR leukemia = system: SR leukemia
SW-620 colon = system: SW-620 colon
T-47D breast = system: T-47D breast
TK-10 renal = system: TK-10 renal
U251 CNS = system: U251 CNS
UACC-257 melanoma = system: UACC-257 melanoma
UACC-62 melanoma = system: UACC-62 melanoma
UO-31 renal = system: UO-31 renal
MDA-N = system: MDA-N

For COc1ccc(C(=O)Cn2c(C(=O)c3ccc(Cl)cc3)nc3ccccc32)cc1, the GI50 (786-0 renal) was 13.2 µM, the TGI (786-0 renal) was > 27.3 µM and the GI50 (A498 renal) was 14.3 µM. The TGI (A498 renal) was > 100 µM, the GI50 (A549 NSCLC) was 29.8 µM and the TGI (A549 NSCLC) was > 100 µM. The GI50 (ACHN renal) was 22.9 µM, the TGI (ACHN renal) was > 100 µM and the GI50 (BT-549 breast) was > 38.7 µM. The TGI (BT-549 breast) was > 100 µM, the GI50 (CAKI-1 renal) was > 100 µM and the TGI (CAKI-1 renal) was > 100 µM. The GI50 (CCRF-CEM leukemia) was 3.02 µM, the TGI (CCRF-CEM leukemia) was > 100 µM and the GI50 (COLO 205 colon) was 37.5 µM. The TGI (COLO 205 colon) was > 100 µM, the GI50 (DU-145 prostate) was > 100 µM and the TGI (DU-145 prostate) was > 100 µM. For the same molecule, the GI50 (EKVX NSCLC) was > 42.9 µM, the TGI (EKVX NSCLC) was > 100 µM and the GI50 (HCC-2998 colon) was 6.55 µM. The TGI (HCC-2998 colon) was > 100 µM, the GI50 (HCT-116 colon) was 2.56 µM and the TGI (HCT-116 colon) was > 25 µM. The GI50 (HCT-15 colon) was 3.88 µM, the TGI (HCT-15 colon) was > 100 µM and the GI50 (HL-60(TB) leukemia) was 3.11 µM. The TGI (HL-60(TB) leukemia) was > 53.3 µM, the TGI (HOP-62 NSCLC) was > 34.6 µM and the GI50 (HOP-92 NSCLC) was > 100 µM. The TGI (HOP-92 NSCLC) was > 100 µM, the GI50 (HS 578T breast) was 3.29 µM and the TGI (HS 578T breast) was > 23.7 µM. The GI50 (HT29 colon) was 7.58 µM, the TGI (HT29 colon) was > 100 µM and the GI50 (IGROV1 ovarian) was 25.7 µM. The TGI (IGROV1 ovarian) was > 100 µM, the GI50 (K-562 leukemia) was 3.33 µM and the TGI (K-562 leukemia) was > 100 µM. The GI50 (KM12 colon) was 4.18 µM, the TGI (KM12 colon) was > 100 µM and the GI50 (LOX IMVI melanoma) was 17.5 µM. The TGI (LOX IMVI melanoma) was > 100 µM, the GI50 (M14 melanoma) was 3.69 µM and the TGI (M14 melanoma) was > 39.3 µM. For the same molecule, the GI50 (MALME-3M melanoma) was > 56.3 µM, the TGI (MALME-3M melanoma) was > 100 µM and the GI50 (MCF7 breast) was 3 µM. For the same molecule, the TGI (MCF7 breast) was > 100 µM, the GI50 (MDA-MB-231 breast) was 24.8 µM and the TGI (MDA-MB-231 breast) was > 100 µM. For the same molecule, the GI50 (MDA-MB-435) was 2.23 µM, the TGI (MDA-MB-435) was > 23.2 µM and the GI50 (MOLT-4 leukemia) was 3.83 µM. The TGI (MOLT-4 leukemia) was > 100 µM, the GI50 (NCI-H226 lung) was > 100 µM and the TGI (NCI-H226 lung) was > 100 µM. The GI50 (NCI-H23 lung) was > 57.9 µM, the TGI (NCI-H23 lung) was > 100 µM and the GI50 (NCI-H460 lung) was 25.2 µM. The TGI (NCI-H460 lung) was > 100 µM, the GI50 (NCI-H522 lung) was 10.3 µM and the TGI (NCI-H522 lung) was > 100 µM. The GI50 (NCI/ADR-RES ovarian) was 5.15 µM, the TGI (NCI/ADR-RES ovarian) was > 37.4 µM and the GI50 (OVCAR-3 ovarian) was > 20.3 µM. For the same molecule, the TGI (OVCAR-3 ovarian) was > 77.6 µM, the GI50 (OVCAR-4 ovarian) was > 84.1 µM and the TGI (OVCAR-4 ovarian) was > 100 µM. For the same molecule, the GI50 (OVCAR-5 ovarian) was > 66.3 µM, the TGI (OVCAR-5 ovarian) was > 100 µM and the GI50 (OVCAR-8 ovarian) was > 100 µM. For the same molecule, the TGI (OVCAR-8 ovarian) was > 100 µM, the GI50 (PC-3 prostate) was 21.2 µM and the TGI (PC-3 prostate) was > 100 µM. For the same molecule, the GI50 (RPMI-8226 leukemia) was 1.75 µM, the TGI (RPMI-8226 leukemia) was > 77.8 µM and the GI50 (RXF 393 renal) was 3.62 µM. For the same molecule, the TGI (RXF 393 renal) was 20.5 µM, the GI50 (SF-268 CNS) was > 24.4 µM and the TGI (SF-268 CNS) was > 100 µM. For the same molecule, the GI50 (SF-295 CNS) was 22.8 µM, the TGI (SF-295 CNS) was > 100 µM and the GI50 (SF-539 CNS) was 99.3 µM. The TGI (SF-539 CNS) was > 100 µM, the GI50 (SK-MEL-2 melanoma) was > 32.7 µM and the TGI (SK-MEL-2 melanoma) was > 100 µM. For the same molecule, the GI50 (SK-MEL-28 melanoma) was > 22.4 µM, the TGI (SK-MEL-28 melanoma) was > 100 µM and the GI50 (SK-MEL-5 melanoma) was 5.95 µM. The TGI (SK-MEL-5 melanoma) was > 100 µM, the GI50 (SK-OV-3 ovarian) was 23.6 µM and the TGI (SK-OV-3 ovarian) was > 100 µM. The GI50 (SN12C renal) was 97.8 µM, the TGI (SN12C renal) was > 100 µM and the GI50 (SNB-19 CNS) was 46.5 µM. The TGI (SNB-19 CNS) was > 100 µM, the GI50 (SNB-75 CNS) was 20.9 µM and the TGI (SNB-75 CNS) was > 100 µM. The GI50 (SR leukemia) was 2.2 µM, the TGI (SR leukemia) was > 22.4 µM and the GI50 (SW-620 colon) was 4.4 µM. The TGI (SW-620 colon) was > 100 µM, the GI50 (T-47D breast) was > 38.9 µM and the TGI (T-47D breast) was > 100 µM. For the same molecule, the GI50 (TK-10 renal) was > 62.9 µM, the TGI (TK-10 renal) was > 100 µM and the GI50 (U251 CNS) was 19.4 µM. For the same molecule, the TGI (U251 CNS) was > 100 µM, the GI50 (UACC-257 melanoma) was > 100 µM and the TGI (UACC-257 melanoma) was > 100 µM. The GI50 (UACC-62 melanoma) was > 28.4 µM, the TGI (UACC-62 melanoma) was > 100 µM and the GI50 (UO-31 renal) was > 51.2 µM. For the same molecule, the TGI (UO-31 renal) was > 100 µM.

In the case of CN(N=O)C(=O)Nc1c[nH]c(=O)[nH]c1=O, the TGI (786-0 renal) is reported as > 100 µM, the TGI (A498 renal) is reported as > 100 µM and the TGI (A549 NSCLC) is reported as > 100 µM. For the same molecule, the TGI (ACHN renal) was > 100 µM, the TGI (CAKI-1 renal) was > 100 µM and the TGI (CCRF-CEM leukemia) was > 100 µM. For the same molecule, the TGI (COLO 205 colon) was > 100 µM, the TGI (DU-145 prostate) was > 100 µM and the TGI (EKVX NSCLC) was > 100 µM. For the same molecule, the TGI (HCC-2998 colon) was > 100 µM, the TGI (HCT-116 colon) was > 100 µM and the TGI (HCT-15 colon) was > 100 µM. The TGI (HL-60(TB) leukemia) was > 100 µM, the TGI (HOP-62 NSCLC) was > 100 µM and the TGI (HOP-92 NSCLC) was > 100 µM. For the same molecule, the TGI (HT29 colon) was > 100 µM, the TGI (IGROV1 ovarian) was > 100 µM and the TGI (K-562 leukemia) was > 100 µM. The TGI (KM12 colon) was > 100 µM, the TGI (LOX IMVI melanoma) was > 100 µM and the TGI (M14 melanoma) was > 100 µM. For the same molecule, the TGI (MALME-3M melanoma) was > 100 µM, the TGI (MCF7 breast) was > 100 µM and the TGI (MDA-MB-231 breast) was > 100 µM. The TGI (MDA-MB-435) was > 100 µM, the TGI (MDA-N) was > 100 µM and the TGI (MOLT-4 leukemia) was > 100 µM. The TGI (NCI-H226 lung) was > 100 µM, the TGI (NCI-H23 lung) was > 100 µM and the TGI (NCI-H522 lung) was > 100 µM. For the same molecule, the TGI (NCI/ADR-RES ovarian) was > 100 µM, the TGI (OVCAR-3 ovarian) was > 100 µM and the TGI (OVCAR-4 ovarian) was > 100 µM. For the same molecule, the TGI (OVCAR-5 ovarian) was > 100 µM, the TGI (OVCAR-8 ovarian) was > 100 µM and the TGI (PC-3 prostate) was > 100 µM. The TGI (SF-295 CNS) was > 100 µM, the TGI (SF-539 CNS) was > 100 µM and the TGI (SK-MEL-2 melanoma) was > 100 µM. The TGI (SK-MEL-28 melanoma) was > 100 µM, the TGI (SK-MEL-5 melanoma) was > 100 µM and the TGI (SK-OV-3 ovarian) was > 100 µM. The TGI (SN12C renal) was > 100 µM, the TGI (SNB-19 CNS) was > 100 µM and the TGI (SNB-75 CNS) was > 100 µM. For the same molecule, the TGI (SW-620 colon) was > 100 µM, the TGI (T-47D breast) was > 100 µM and the TGI (TK-10 renal) was > 100 µM. For the same molecule, the TGI (U251 CNS) was > 100 µM, the TGI (UACC-257 melanoma) was > 100 µM and the TGI (UACC-62 melanoma) was > 100 µM. The TGI (UO-31 renal) was > 100 µM.
